Patent US11053204B2, “Pyrimidinyloxy benzene derivatives as herbicides” (FMC Corporation, priority 2015, dated 2021)

Key:
Type in all cases: in vivo
[1] = system: pigweed, palmer (palmer pigweed, Amaranthus palmeri); test: Test C preemergence, plant response rating
[2] = system: ragweed (common ragweed, Ambrosia elatior); test: Test C postemergence, plant response rating; conditions: for Ragweed plant response rating: scale 0 to 100 (0 no effect, 100 complete control)
Procedure, shortened: (§1)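 Visual injury score, 0 = no effect, 100 = complete control, assigned against untreated controls after 13 to 15 d in the greenhouse. Compounds were applied in a surfactant-containing non-phytotoxic solvent mix, preemergence to seeded loam/sand or silt loam soil, or postemergence to 1- to 4-leaf plants (2 to 18 cm).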

[3] = system: lambsquarters (Chenopodium album); test: Test C postemergence, plant response rating; conditions: for Lambsquarters plant response rating: scale 0 to 100 (0 no effect, 100 complete control)
Procedure, shortened: as §1

[4] = system: oat, wild (wild oat Avena fatua); test: Test C postemergence, plant response rating; conditions: for Oat, Wild plant response rating: scale 0 to 100 (0 no effect, 100 complete control)
Procedure, shortened: as §1

[5] = system: nutsedge, yellow (yellow nutsedge, Cyperus esculentus); test: Test C postemergence, plant response rating; conditions: for Nutsedge, Yellow plant response rating: scale 0 to 100 (0 no effect, 100 complete control)
Procedure, shortened: as §1

[6] = system: velvetleaf (Abutilon theophrasti); test: Test C postemergence, plant response rating
Procedure, shortened: as §1

[7] = system: chickweed (common chickweed, Stellaria media); test: Test C postemergence, plant response rating; conditions: for Chickweed plant response rating: scale 0 to 100 (0 no effect, 100 complete control)
Procedure, shortened: as §1

[8] = system: barnyardgrass (Echinochloa crus-galli); test: Test C postemergence, plant response rating; conditions: for Barnyardgrass plant response rating: scale 0 to 100 (0 no effect, 100 complete control)
Procedure, shortened: as §1

[9] = system: morningglory (Ipomoea coccinea); test: Test C postemergence, plant response rating; conditions: for Morningglory plant response rating: scale 0 to 100 (0 no effect, 100 complete control)
Procedure, shortened: as §1

[10] = system: wheat (winter wheat, Triticum aestivum); test: Test C postemergence, plant response rating
Procedure, shortened: as §1

[11] = system: blackgrass (Alopecurus myosuroides); test: Test C postemergence, plant response rating; conditions: for Blackgrass plant response rating: scale 0 to 100 (0 no effect, 100 complete control)
Procedure, shortened: as §1

[12] = system: ryegrass, Italian (Italian ryegrass, Lolium multiflorum); test: Test C postemergence, plant response rating; conditions: for Ryegrass, Italian plant response rating: scale 0 to 100 (0 no effect, 100 complete control)
Procedure, shortened: as §1

[13] = system: galium (catchweed bedstraw, Galium aparine); test: Test C preemergence, plant response rating
kochia (Kochia scoparia) = test: Test C preemergence, plant response rating
[14] = system: oat, wild (wild oat Avena fatua); test: Test C preemergence, plant response rating
[15] = system: johnsongrass (Sorghum halepense); test: Test C preemergence, plant response rating
[16] = system: windgrass (Apera spica-venti); test: Test C preemergence, plant response rating
[17] = system: barnyardgrass (Echinochloa crus-galli); test: Test C preemergence, plant response rating; conditions: Preemergence
[18] = system: wild poinsettia (Euphorbia heterophylla); test: Test C preemergence, plant response rating
[19] = system: surinam grass (Brachiaria decumbens); test: Test C preemergence, plant response rating
[20] = 125 g ai/ha, scale 0 to 100 (0 no effect, 100 complete control)

N#CC(CCCC(F)(F)F)c1ccccc1Oc1ncc(Cl)cn1 (stereo not shown) [Compound 144]
30: Plant response rating, Oat, Wild ([4]; 31 g ai/ha, scale 0 to 100) | Oat, Wild plant response rating ([4]; 62 g ai/ha) | Plant response rating, Velvetleaf ([6]; 31 g ai/ha, scale 0 to 100) | Plant response rating, Morningglory ([9]; 16 g ai/ha, scale of 0 to 100) | Plant response rating, Windgrass ([16]; 31 g ai/ha, scale 0 to 100)
75: Plant response rating, Lambsquarters ([3]; 31 g ai/ha, scale 0 to 100)
80: Plant response rating, Windgrass ([16]; 62 g ai/ha, scale 0 to 100) | Plant response rating, Poinsettia, Wild ([18]; 125 g ai/ha, scale of 0 to 100)
55: Plant response rating, Chickweed ([7]; 31 g ai/ha, scale 0 to 100) | Plant response rating, Galium ([13]; 125 g ai/ha, scale of 0 to 100)
70: Lambsquarters plant response rating ([3]; 62 g ai/ha) | Plant response rating, Johnsongrass ([15]; 125 g ai/ha, scale of 0 to 100) | Plant response rating, Barnyardgrass ([17]; 62 g ai/ha, scale 0 to 100) | Plant response rating, Surinam Grass ([19]; 62 g ai/ha, scale 0 to 100)
50: Plant response rating, Chickweed ([7]; 16 g ai/ha, scale of 0 to 100) | Morningglory plant response rating ([9]; 62 g ai/ha) | Plant response rating, Galium ([13]; 31 g ai/ha, scale 0 to 100) | Plant response rating, Galium ([13]; 62 g ai/ha, scale 0 to 100)
25: Ragweed plant response rating ([2]; 62 g ai/ha) | Plant response rating, Velvetleaf ([6]; 16 g ai/ha, scale of 0 to 100)
95: Plant response rating, Barnyardgrass ([17]; 125 g ai/ha, scale of 0 to 100)
90: Plant response rating, Kochia (kochia (Kochia scoparia); 31 g ai/ha, scale 0 to 100) | Plant response rating, Windgrass ([16]; 125 g ai/ha, scale of 0 to 100)
5: Plant response rating, Barnyardgrass ([8]; 16 g ai/ha, scale of 0 to 100) | Plant response rating, Barnyardgrass ([8]; 31 g ai/ha, scale 0 to 100) | Plant response rating, Wheat ([10]; 16 g ai/ha, scale of 0 to 100) | Plant response rating, Wheat ([10]; 31 g ai/ha, scale 0 to 100) | Plant response rating, Ryegrass, Italian ([12]; 16 g ai/ha, scale of 0 to 100) | Plant response rating, Oat, Wild ([14]; 31 g ai/ha, scale 0 to 100) | Plant response rating, Poinsettia, Wild ([18]; 31 g ai/ha, scale 0 to 100) | Plant response rating, Surinam Grass ([19]; 31 g ai/ha, scale 0 to 100)
10: Plant response rating, Ragweed ([2]; 16 g ai/ha, scale of 0 to 100) | Nutsedge, Yellow plant response rating ([5]; 62 g ai/ha) | Nutsedge, Yellow plant response rating ([5]; 125 g ai/ha) | Barnyardgrass plant response rating ([8]; 62 g ai/ha) | Barnyardgrass plant response rating ([8]; 125 g ai/ha) | Plant response rating, Blackgrass ([11]; 16 g ai/ha, scale of 0 to 100) | Plant response rating, Blackgrass ([11]; 31 g ai/ha, scale 0 to 100) | Plant response rating, Ryegrass, Italian ([12]; 31 g ai/ha, scale 0 to 100) | Plant response rating, Oat, Wild ([14]; 62 g ai/ha, scale 0 to 100) | Plant response rating, Oat, Wild ([14]; 125 g ai/ha, scale of 0 to 100) | Plant response rating, Johnsongrass ([15]; 31 g ai/ha, scale 0 to 100) | Plant response rating, Barnyardgrass ([17]; 16 g ai/ha, scale 0 to 100)
100: Plant response rating, Pigweed, Palmer ([1]; 31 g ai/ha, scale 0 to 100) | Plant response rating, Pigweed, Palmer ([1]; 62 g ai/ha, scale 0 to 100) | Plant response rating, Pigweed, Palmer ([1]; 125 g ai/ha, scale of 0 to 100) | Plant response rating, Kochia (kochia (Kochia scoparia); 62 g ai/ha, scale 0 to 100) | Plant response rating, Kochia (kochia (Kochia scoparia); 125 g ai/ha, scale of 0 to 100)
20: Plant response rating, Oat, Wild ([4]; 16 g ai/ha, scale of 0 to 100) | Plant response rating, Morningglory ([9]; 31 g ai/ha, scale 0 to 100) | Ryegrass, Italian plant response rating ([12]; 125 g ai/ha)
60: Morningglory plant response rating ([9]; 125 g ai/ha) | Plant response rating, Surinam Grass ([19]; 125 g ai/ha, scale of 0 to 100)
65: Velvetleaf plant response rating [6, 20]
15: Plant response rating, Ragweed ([2]; 31 g ai/ha, scale 0 to 100) | Ragweed plant response rating ([2]; 125 g ai/ha) | Wheat plant response rating [10, 20] | Blackgrass plant response rating ([11]; 62 g ai/ha) | Blackgrass plant response rating ([11]; 125 g ai/ha) | Ryegrass, Italian plant response rating ([12]; 62 g ai/ha)
40: Plant response rating, Lambsquarters ([3]; 16 g ai/ha, scale of 0 to 100) | Plant response rating, Johnsongrass ([15]; 62 g ai/ha, scale 0 to 100) | Plant response rating, Barnyardgrass ([17]; 31 g ai/ha, scale 0 to 100) | Plant response rating, Poinsettia, Wild ([18]; 62 g ai/ha, scale 0 to 100)
35: Oat, Wild plant response rating ([4]; 125 g ai/ha)
85: Lambsquarters plant response rating ([3]; 125 g ai/ha) | Chickweed plant response rating ([7]; 62 g ai/ha) | Chickweed plant response rating ([7]; 125 g ai/ha)
0: Plant response rating, Nutsedge, Yellow ([5]; 16 g ai/ha, scale of 0 to 100) | Plant response rating, Nutsedge, Yellow ([5]; 31 g ai/ha, scale 0 to 100)
